We go through two compounds from publication PMC13220710 (Bioorganic & medicinal chemistry letters, 2025).

Where two headings read alike, the source gives them in different places.

Experiment [1] relates to PC3 prostate cancer cell line. In words: Anti-proliferative activity versus PC3 cells in MTS assay. It counts as cell-based. A general note: Tetrazolium assays rely on reduction of a dye to a coloured formazan, in cell work by metabolically active cells.
Another experiment deals with PC3 cells. The following applies: cited from earlier work.

What is called IC50 is the midpoint of a concentration-inhibition curve. As to `CC1CCN(CC[C@H]2CCCN2S(=O)(=O)c2cccc(O)c2)CC1` [SB-269970], in experiment [1] (read-out: IC50, viability in prostate cancer cell line PC3, MTS assay, triplicate), the IC50 is 52.1 ± 6.5 µM. Moreover, in the experiment with PC3 cells, the “effect on PC3 cells” value is “inhibited proliferation and induced apoptosis in PC3 cells”. Take `COc1cccc2c1C(=O)c1c(O)c3c(c(O)c1C2=O)C[C@@](O)(C(=O)CO)C[C@@H]3O[C@H]1C[C@H](N)[C@H](O)[C@H](C)O1` [Doxorubicin]: the IC50 in experiment [1] (Homo sapiens, PC-3, read-out: IC50, viability in prostate cancer cell line PC3) is 2.8 ± 0.8 µM.
